The values that follow come from ChEMBL document CHEMBL4145695, “Histone Deacetylase 6-Selective Inhibitors and the Influence of Capping Groups on Hydroxamate-Zinc Denticity” (J Med Chem, 2018).

By IC50 is commonly meant the concentration at which inhibition is half-maximal.

For one assay, the target named is Histone deacetylase 1 (Homo sapiens, UniProt Q13547). The experiment in a line: Inhibition of human recombinant HDAC1 incubated for 90 mins using fluorogenic substrate ZMAL (Z-Lys(Ac)-AMC) by fluorescence based assay.
The target in assay [1] is T1, Protein deacetylase HDAC6 (Homo sapiens, UniProt Q9UBN7).
T1 sequence (Q9UBN7 whole entry): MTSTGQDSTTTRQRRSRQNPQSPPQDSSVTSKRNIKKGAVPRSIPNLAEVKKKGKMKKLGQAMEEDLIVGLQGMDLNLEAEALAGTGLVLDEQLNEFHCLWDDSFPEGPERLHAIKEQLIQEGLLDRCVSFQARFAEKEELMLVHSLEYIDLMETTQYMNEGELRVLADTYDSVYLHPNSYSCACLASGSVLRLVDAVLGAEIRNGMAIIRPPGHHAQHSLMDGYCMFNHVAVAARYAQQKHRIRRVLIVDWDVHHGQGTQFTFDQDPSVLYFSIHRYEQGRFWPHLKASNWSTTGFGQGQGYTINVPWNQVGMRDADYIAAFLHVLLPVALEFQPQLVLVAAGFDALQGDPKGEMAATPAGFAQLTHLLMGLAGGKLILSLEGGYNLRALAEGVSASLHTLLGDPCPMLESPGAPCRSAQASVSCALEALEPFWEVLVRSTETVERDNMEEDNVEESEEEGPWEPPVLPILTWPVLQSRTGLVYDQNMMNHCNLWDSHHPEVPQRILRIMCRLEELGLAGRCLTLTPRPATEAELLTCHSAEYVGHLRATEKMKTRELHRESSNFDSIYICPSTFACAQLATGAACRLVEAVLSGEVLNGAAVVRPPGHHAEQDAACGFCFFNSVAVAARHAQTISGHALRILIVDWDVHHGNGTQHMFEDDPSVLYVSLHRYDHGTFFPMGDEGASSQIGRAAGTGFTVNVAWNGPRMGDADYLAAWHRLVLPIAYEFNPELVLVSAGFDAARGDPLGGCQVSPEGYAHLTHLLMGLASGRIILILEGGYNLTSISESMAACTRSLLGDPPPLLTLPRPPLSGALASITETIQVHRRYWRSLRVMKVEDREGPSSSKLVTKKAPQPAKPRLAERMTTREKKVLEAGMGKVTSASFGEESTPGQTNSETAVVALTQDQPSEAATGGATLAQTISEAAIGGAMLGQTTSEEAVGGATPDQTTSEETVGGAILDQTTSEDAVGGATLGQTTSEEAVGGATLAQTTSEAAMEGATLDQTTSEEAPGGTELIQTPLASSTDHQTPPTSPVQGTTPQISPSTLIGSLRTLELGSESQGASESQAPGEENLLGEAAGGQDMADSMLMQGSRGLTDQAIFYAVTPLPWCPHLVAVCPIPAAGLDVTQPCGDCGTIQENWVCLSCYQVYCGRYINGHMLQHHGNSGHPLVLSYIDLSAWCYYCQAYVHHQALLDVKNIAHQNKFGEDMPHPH
The experiment in a line: Inhibition of human recombinant HDAC6 incubated for 90 mins using fluorogenic substrate ZMAL (Z-Lys(Ac)-AMC) by fluorescence based assay.

For another assay, the species on record is Homo sapiens. Kind of assay: Selectivity index, ratio of IC50 for inhibition of human recombinant HDAC1 to IC50 for inhibition of human recombinant HDAC6.

Where only a bound is given, the exact number is not on record here.

Histone deacetylase 1, sequence (Q13547 whole entry): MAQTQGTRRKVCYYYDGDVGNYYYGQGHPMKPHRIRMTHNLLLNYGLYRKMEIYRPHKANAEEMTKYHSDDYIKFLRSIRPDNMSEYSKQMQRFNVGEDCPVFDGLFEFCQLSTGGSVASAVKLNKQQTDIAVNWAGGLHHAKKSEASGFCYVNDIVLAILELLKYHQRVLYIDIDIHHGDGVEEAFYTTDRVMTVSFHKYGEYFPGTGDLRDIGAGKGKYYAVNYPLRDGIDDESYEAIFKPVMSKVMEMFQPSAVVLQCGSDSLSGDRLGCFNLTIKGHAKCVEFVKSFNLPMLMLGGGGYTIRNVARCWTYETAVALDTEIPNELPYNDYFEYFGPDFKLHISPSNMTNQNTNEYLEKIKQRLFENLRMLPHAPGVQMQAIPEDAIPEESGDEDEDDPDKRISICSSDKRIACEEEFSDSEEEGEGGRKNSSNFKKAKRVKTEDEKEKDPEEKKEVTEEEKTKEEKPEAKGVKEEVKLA

Regarding `CN(Cc1ccc(C(=O)NO)cc1F)CC12CC3CC(CC(C3)C1)C2`, the half-maximal inhibitory concentration (IC50) on Histone deacetylase 1 is over 1000 µM.

`Cc1cc(C)cc(C(=O)N(CC(=O)NC2CCCCC2)Cc2ccc(C(=O)NO)cc2)c1`: the IC50 in assay [1] worked out at 0.011 µM; at Histone deacetylase 1 it was 0.27 µM. Further, the Ratio IC50 in the assay listed under Homo sapiens was determined as 25.

In the case of `CN(C)c1ccc(C(=O)N(CC(=O)NCc2ccccc2)Cc2ccc(C(=O)NO)cc2)cc1`, the IC50 in assay [1] was 0.014 µM; on Histone deacetylase 1 it was 0.008 µM. In addition, the Ratio IC50 in the assay listed under Homo sapiens worked out at 0.6.
